Where “and” joins values, the source holds several entries; their conditions need not be identical. Identical values can stand only once. Like-named read-outs stand apart in the source and are kept apart here.
How the values were obtained:
aldose reductase = molecular target: T1, aldose reductase (Bos taurus, UniProt P16116); experiment: aldose reductase inhibiting effects in vitro (Table I, IN VITRO); type: biochemical, bovine (lens); details: for inhibition at 0.04 µM / inhibition at 0.1 µM / inhibition at 1 µM / inhibition at 10 µM: read-out: % Inhibition IN VITRO
T1 construct: preparation of the enzyme from bovine lens; from tissue; host or cells: bovine lens
Text: In the present case the procedure of Hayman and Kinoshita was modified in that the final chromatography step was omitted in the preparation of the enzyme from bovine lens. The results are tabulated in Table I under the heading IN VITRO.

dulcitol accumulation = experiment: lowering of dulcitol (galactitol) accumulation in tissues of galactosemic rats (Table I, IN VIVO); set-up: species or system rat (Sprague-Dawley); details: galactosemic rats, 4 days; for % Lowering dulcitol accumulation IN VIVO, D: diaphragm; for % Lowering dulcitol accumulation IN VIVO, L: lens
Text: Such experiments are exemplified hereinbelow after the listing of the following general comments pertaining to these experiments:
(a) Four or more groups of six male rats, […], Sprague-Dawley strain, were used. The first group, the control group, was fed a mixture of laboratory chow (rodent Laboratory Chow, Purina) and […] at 20% (w/w %) concentration. […] The test compound was either admixed to the diet or administered by gavage. In experiments involving compound administration in the diet, the average dose administered was calculated from the actual food intake of the animals in each group. The concentration of galactose in the diet of the treated groups was the same as that for the untreated galactosemic group.
(b) After four days, the animals were killed by decapitation. The eyeballs were removed and punctured with a razor blade; the freed lenses were rolled gently on filter paper and weighed. The sciatic nerves were dissected as completely as possible and weighed. Both tissues when frozen can be kept up to two weeks before being analyzed for galactitol.
Only two minor reagent changes were made: (a) the rinsing mixture was an aqueous 5% (w/v) trichloroacetic acid solution and (b) the stock solution was prepared by dissolving 25 mg of dulcitol in 100 mL of an aqueous trichloroacetic acid solution. [N.B.: For each experiment the average value found in the tissue from rats fed the glucose diet was subtracted from the individual values found in the corresponding tissue in galactose-fed rats to obtain the amount of polyol accumulated.]
The figures under L, N, and D represent the percentage decrease of galactitol accumulation in the tissues of the lens, sciatic nerve, and diaphragm, respectively, for treated rats as compared to untreated rats.

Molecule `COc1ccc2c(C(=S)N(C)CC(=O)O)c(OCc3ccccc3)ccc2c1C(F)(F)F` has an inhibition at 0.04 µM (aldose reductase; 4 × 10^-8 M) of 45%, an inhibition at 0.1 µM (aldose reductase; 10^-7 M) of 84% and an inhibition at 1 µM (aldose reductase) of 96%. The inhibition at 10 µM (aldose reductase) was 96%.
`COc1ccc2c(C(=O)N(C)CC(=O)O)c(Cl)ccc2c1C(F)(F)F` [Cl O OH, N-[[2-Chloro-6-methoxy-5-(trifluoromethyl)-1-naphthalenyl]carbonyl]-N-methylglycine] gave an inhibition at 0.04 µM (aldose reductase; 4 × 10^-8 M) of 36%, an inhibition at 10 µM (aldose reductase; 10^-5 M) of 90% and an inhibition at 1 µM (aldose reductase; 10^-6 M) of 87%. For the same molecule, the inhibition at 0.1 µM (aldose reductase; 10^-7 M) was 63%.
`COc1ccc2c(C(=O)N(C)CC(N)=O)c(Cl)ccc2c1C(F)(F)F` [Example 2, [[[2-Chloro-6-methoxy-5-(trifluoromethyl)-1-naphthalenyl]carbonyl]methylamino]acetamide] was tested, and the inhibition at 10 µM (aldose reductase; 10^-5 M) was 9%, the inhibition at 1 µM (aldose reductase; 10^-6 M) was 0% and the “% Lowering dulcitol accumulation IN VIVO, D” value (dulcitol accumulation; 24 mg/kg) was 53%. The “% Lowering dulcitol accumulation IN VIVO, L” value (dulcitol accumulation; 24 mg/kg) was “N.S”.
Molecule `COc1ccc2c(C(=O)N(C)CC(=O)O)c(OCC(F)(F)F)ccc2c1C(F)(F)F` [Example 3, N-[[6-Methoxy-2-(2,2,2-trifluoroethoxy)-5-(trifluoromethyl)-1-naphthalenyl]carbonyl]-N-methylglycine] has an inhibition at 0.04 µM (aldose reductase; 4 × 10^-8 M) of 32%, an inhibition at 1 µM (aldose reductase; 10^-6 M) of 91% and an inhibition at 0.1 µM (aldose reductase; 10^-7 M) of 67%. It also gave an inhibition at 10 µM (aldose reductase) of 96%.
In the case of `CCOc1ccc2c(C(F)(F)F)c(OC)ccc2c1C(=S)N(C)CC(=O)O` [Example 4, N-[[2-Ethoxy-6-methoxy-5-(trifluoromethyl)-1-naphthalenyl]thioxomethyl]-N-methylglycine], the inhibition at 0.04 µM (aldose reductase; 4 × 10^-8 M) is reported as 50%, the inhibition at 1 µM (aldose reductase; 10^-6 M) is reported as 95% and the inhibition at 0.1 µM (aldose reductase; 10^-7 M) is reported as 87%. For the same molecule, the inhibition at 10 µM (aldose reductase) was 98%, the “% Lowering dulcitol accumulation IN VIVO, D” value (dulcitol accumulation; 28 mg/kg) was 85% and the “% Lowering dulcitol accumulation IN VIVO, L” value (dulcitol accumulation; 28 mg/kg) was “N.S”.
In the case of `COc1ccc2c(C(=S)N(C)CC(=O)O)c(OCC(F)(F)F)ccc2c1C(F)(F)F` [Example 5, N-[[6-Methoxy-2-(2,2,2-trifluoroethoxy)-5-(trifluoromethyl)-1-naphthalenyl]thioxomethyl]-N-methylglycine], the inhibition at 0.04 µM (aldose reductase; 4 × 10^-8 M) is reported as 49%, the inhibition at 1 µM (aldose reductase; 10^-6 M) is reported as 95% and the inhibition at 0.1 µM (aldose reductase; 10^-7 M) is reported as 87%. The inhibition at 10 µM (aldose reductase) was 99%, the “% Lowering dulcitol accumulation IN VIVO, D” value (dulcitol accumulation; 26 mg/kg) was 88% and the “% Lowering dulcitol accumulation IN VIVO, L” value (dulcitol accumulation; 26 mg/kg) was “N.S”.
Work on `CCOc1ccc2c(C(F)(F)F)c(OC)ccc2c1C(=O)N(C)CC(=O)O` [Example 6, N-[[2-Ethoxy-6-methoxy-5-(trifluoromethyl)-1-naphthalenyl]carbonyl]-N-methylglycine] yielded an inhibition at 0.04 µM (aldose reductase; 4 × 10^-8 M) of 33%, an inhibition at 10 µM (aldose reductase; 10^-5 M) of 89% and an inhibition at 1 µM (aldose reductase; 10^-6 M) of 89%. The inhibition at 0.1 µM (aldose reductase) was 65%, the “% Lowering dulcitol accumulation IN VIVO, D” value (dulcitol accumulation; 49 mg/kg) was 57% and the “% Lowering dulcitol accumulation IN VIVO, L” value (dulcitol accumulation; 49 mg/kg) was “N.S”.
For `CCCOc1ccc2c(C(F)(F)F)c(OC)ccc2c1C(=O)N(C)CC(=O)O` [Example 7, N-[[6-Methoxy-2-propoxy-5-(trifluoromethyl)-1-naphthalenyl]carbonyl]-N-methylglycine], the inhibition at 0.04 µM (aldose reductase; 4 × 10^-8 M) was 21%, the inhibition at 0.1 µM (aldose reductase) was 46% and the “% Lowering dulcitol accumulation IN VIVO, D” value (dulcitol accumulation; 50 mg/kg) was 57%. For the same molecule, the “% Lowering dulcitol accumulation IN VIVO, L” value (dulcitol accumulation; 50 mg/kg) was “N.S”.
For `COc1ccc2c(C(=O)N(C)CC(=O)O)c(Oc3ccccc3)ccc2c1C(F)(F)F` [Example 8, N-[[6-Methoxy-2-phenoxy-5-(trifluoromethyl)-1-naphthalenyl]carbonyl]-N-methylglycine], the inhibition at 0.04 µM (aldose reductase; 4 × 10^-8 M) was 50%, the inhibition at 0.1 µM (aldose reductase; 10^-7 M) was 83% and the inhibition at 1 µM (aldose reductase) was 93%. For the same molecule, the inhibition at 10 µM (aldose reductase) was 93%, the “% Lowering dulcitol accumulation IN VIVO, D” value (dulcitol accumulation; 48 mg/kg) was 67% and the “% Lowering dulcitol accumulation IN VIVO, L” value (dulcitol accumulation; 48 mg/kg) was “N.S”.
Work on `COc1ccc2c(C(=O)N(C)CC(=O)O)c(Br)ccc2c1C(F)(F)F` [Example 9, N-[[2-Bromo-6-methoxy-5-(trifluoromethyl)-1-naphthalenyl]carbonyl]-N-methylglycine] yielded an inhibition at 10 µM (aldose reductase; 10^-5 M) of 95%, an inhibition at 1 µM (aldose reductase; 10^-6 M) of 90% and an inhibition at 0.1 µM (aldose reductase; 10^-7 M) of 63%. For the same molecule, the “% Lowering dulcitol accumulation IN VIVO, D” value (dulcitol accumulation; 97 mg/kg) was 84% and the “% Lowering dulcitol accumulation IN VIVO, L” value (dulcitol accumulation; 97 mg/kg) was 8%.
For `COc1ccc2c(C(=S)N(C)CC(=O)O)c(Cl)ccc2c1C(F)(F)F` [Example 10, N-[[2-Chloro-6-methoxy-5-(trifluoromethyl)-1-naphthalenyl]thioxomethyl]-N-methylglycine], the inhibition at 0.04 µM (aldose reductase; 4 × 10^-8 M) was 51%, the inhibition at 10 µM (aldose reductase; 10^-5 M) was 95% and the inhibition at 1 µM (aldose reductase; 10^-6 M) was 91%. The inhibition at 0.1 µM (aldose reductase; 10^-7 M) was 81%, the “% Lowering dulcitol accumulation IN VIVO, D” value (dulcitol accumulation; 24 mg/kg) was 90% and the “% Lowering dulcitol accumulation IN VIVO, L” value (dulcitol accumulation; 24 mg/kg) was “N.S”.
For `CCCCOc1ccc2c(C(F)(F)F)c(OC)ccc2c1C(=O)N(C)CC(=O)O` [Example 12, N-[[2-Butoxy-6-methoxy-5-(trifluoromethyl)-1-naphthalenyl]carbonyl]-N-methylglycine], the inhibition at 0.04 µM (aldose reductase; 4 × 10^-8 M) was 25%, the inhibition at 10 µM (aldose reductase; 10^-5 M) was 92% and the inhibition at 1 µM (aldose reductase; 10^-6 M) was 88%. For the same molecule, the inhibition at 0.1 µM (aldose reductase; 10^-7 M) was 42%, the “% Lowering dulcitol accumulation IN VIVO, D” value (dulcitol accumulation; 49 mg/kg) was 55% and the “% Lowering dulcitol accumulation IN VIVO, L” value (dulcitol accumulation; 49 mg/kg) was “N.S”.
In the case of `CCOC(=O)NC(=O)CN(C)C(=O)c1c(F)ccc2c(C(F)(F)F)c(OC)ccc12` [F O NHCO2 C2 H5, N-[2-[(Ethoxycarbonyl)amino]-2-oxoethyl]-2-fluoro-6-methoxy-N-methyl-5-(trifluoromethyl)-1-naphthalenecarboxamide], the inhibition at 10 µM (aldose reductase; 10^-5 M) is reported as 8%, the inhibition at 1 µM (aldose reductase; 10^-6 M) is reported as 2% and the “% Lowering dulcitol accumulation IN VIVO, D” value (dulcitol accumulation; 22 mg/kg) is reported as 55%. The “% Lowering dulcitol accumulation IN VIVO, L” value (dulcitol accumulation; 22 mg/kg) was “N.S”.
With `COc1ccc2c(C(=O)N(C)CC(=O)O)c(F)ccc2c1C(F)(F)F` [F O OH, N-[[2-Fluoro-6-methoxy-5-(trifluoromethyl)-1-naphthalenyl]carbonyl]-N-methylglycine] the inhibition at 0.04 µM (aldose reductase; 4 × 10^-8 M) was 49%, the inhibition at 0.1 µM (aldose reductase; 10^-7 M) was 80% and the inhibition at 1 µM (aldose reductase) was 93%. The inhibition at 10 µM (aldose reductase) was 94%, the “% Lowering dulcitol accumulation IN VIVO, L” value (dulcitol accumulation; 52 mg/kg) was 15% and the “% Lowering dulcitol accumulation IN VIVO, L” value (dulcitol accumulation; 100 mg/kg) was 17%.
For `COc1ccc2c(C(=S)N(C)CC(N)=O)c(F)ccc2c1C(F)(F)F` [F S NH2, [[[2-Fluoro-6-methoxy-5-(trifluoromethyl)-1-naphthalenyl]thioxomethyl]methylamino]acetamide], the inhibition at 10 µM (aldose reductase; 10^-5 M) was 2% and the inhibition at 1 µM (aldose reductase; 10^-6 M) was 6%.
`COc1ccc2c(C(=S)N(C)CC(=O)O)c(F)ccc2c1C(F)(F)F` [F S OH, N-[[2-Fluoro-6-methoxy-5-(trifluoromethyl)-1-naphthalenyl]thioxomethyl]-N-methylglycine] was tested, and the inhibition at 0.04 µM (aldose reductase; 4 × 10^-8 M) was 45%, the inhibition at 1 µM (aldose reductase) was 94% and the inhibition at 10 µM (aldose reductase) was 99%. The “% Lowering dulcitol accumulation IN VIVO, D” value (dulcitol accumulation; 4.8 mg/kg) was 86%, the “% Lowering dulcitol accumulation IN VIVO, D” value (dulcitol accumulation; 25 mg/kg) was 93% and the “% Lowering dulcitol accumulation IN VIVO, L” value (dulcitol accumulation; 4.8 mg/kg) was “N.S”. For the same molecule, the “% Lowering dulcitol accumulation IN VIVO, L” value (dulcitol accumulation; 25 mg/kg) was 23%.
For `COc1ccc2c(C(=O)N(C)CC(N)=O)c(OCC(F)(F)F)ccc2c1C(F)(F)F` [OCH2 CF3 O NH2], the inhibition at 10 µM (aldose reductase; 10^-5 M) was 8%, the inhibition at 1 µM (aldose reductase; 10^-6 M) was 1% and the “% Lowering dulcitol accumulation IN VIVO, D” value (dulcitol accumulation; 24 mg/kg) was “N.S”. The “% Lowering dulcitol accumulation IN VIVO, L” value (dulcitol accumulation; 24 mg/kg) was “N.S”.
In the case of `COc1ccc2c(C(F)(F)F)c(OC)ccc2c1C(=O)N(C)CC(=O)O` [OCH3 O OH], the inhibition at 0.04 µM (aldose reductase; 4 × 10^-8 M) is reported as 56%, the inhibition at 10 µM (aldose reductase; 10^-5 M) is reported as 95% and the “% Inhibition IN VITRO” value (aldose reductase; 10^-6 M) is reported as 92%. For the same molecule, the inhibition at 1 µM (aldose reductase; 10^-6 M) was 95%, the “% Inhibition IN VITRO” value (aldose reductase; 10^-7 M) was 91% and 62% and the inhibition at 0.04 µM (aldose reductase) was 38%. For the same molecule, the inhibition at 10 µM (aldose reductase) was 99%, the “% Lowering dulcitol accumulation IN VIVO, D” value (dulcitol accumulation; 26 mg/kg) was 71% and the “% Lowering dulcitol accumulation IN VIVO, D” value (dulcitol accumulation; 53 mg/kg) was “N.S”. The “% Lowering dulcitol accumulation IN VIVO, L” value (dulcitol accumulation; 26 mg/kg) was “N.S” and the “% Lowering dulcitol accumulation IN VIVO, L” value (dulcitol accumulation; 53 mg/kg) was “N.S”.
